We go through two compounds from patent US20170369887A1, “Therapeutic compositions for breast cancer containing protein kinase D1 inhibitor” (SOOKMYUNG WOMEN'S UNIVERSITY INDUSTRY ACADEMIC COOPERATION …, priority 2016, published 2017).

The test system of one data set is MCF-7 cells. Description: Cell survival rate, WST-8 assay, MCF-7. Conditions: 0.1 to 5 μM, FIG. 12B. Type of data set: cell-based, human. For orientation: Tetrazolium dyes change colour on reduction, which living cells bring about.
For data set [1], the system named is GSK3/β-catenin signaling. Description: Western blot of PKD/PKCμ phosphorylation and GSK3/β-catenin signaling in MCF-7-ADR cells. It is filed as cell-based, human. Conditions: 1 μM or 5 μM, FIG. 3A. The procedure:
CRT0066101 was purchased from R&D Systems (Minneapolis, Minn., USA); this drug was resuspended in sterile distilled water and used for in vivo studies. To treat CRT0066101, MCF-7-ADR cells (American Type Culture Collection, Manassas, Va., USA) were seeded and 0.1 to 10 μM CRT0066101 was added and incubated for 1 hour. WST-8 was purchased from Enzo Life Sciences, Inc. (Farmingdale, N.Y., USA). PRKD1 siRNA and scrambled siRNA (Santa Cruz Biotechnology, Santa Cruz, Calif., USA) were transfected by using Lipofectamine RNAiMAX (Invitrogen, Carlsbad, Calif., USA).
(§1) A total of 30 μg of a protein extract was isolated by 8% SDS-PAGE and the protein was electrophoretically transferred to a PVDF membrane. The primary antibodies used were phosphorylated PKD/PKCμ (Ser916), GSK3β, phosphorylated GSK3α (Ser21)/β (Ser9), and β-catenin. These antibodies were purchased from Cell Signaling Technology (Danvers, Mass., USA) and the PKD/PKCμ antibody was purchased from Santa Cruz Biotechnology. (β-actin (Bethyl Laboratories, Montgomery, Tex., USA) was used as a loading control. The membrane was washed with 1×PBS/0.1% Tween 20 and the bound proteins were detected with an enhanced chemiluminescent reagent (Amersham Pharmacia Biotech, Parsippany, N.J., USA).
For orientation: In western blotting, separated proteins are transferred to a membrane and probed.

Data set [2] concerns MCF-7-ADR cells. Put plainly: Tumorsphere formation assay (TSA). The settings on record: 1 μM or 5 μM, vs control, FIG. 3B. Type of data set: cell-based, human. Here is the method: For incubation of tumorspheres, cells (2000 cells/mL) were suspended and incubated in serum-free DMEM/F12 (welGENE) containing 1% penicillin, B27 (1:50; Gibco; Thermo Fisher), 20 ng/mL of an epidermal growth factor (Prospec, East Brunswick, N.J., (WelGENE) […] of insulin (Sigma-Aldrich, St. Louis, Mo., USA) and 0.4% bovine serum albumin (Sigma-Aldrich). After about 10 days, the plate was analyzed and formation of tumorspheres was verified and quantified with a microscope (Olympus IX71; Olympus, Tokyo, Japan). In order to count the number of tumorspheres, MCF-7-ADR cells were filtered and quantified by a strainer (BD Biosciences, East Rutherford, N.J., USA) having a pore size of 70 μm. Treatment with CRT0066101 was performed on 6-th day and 8-th day after incubation.

Data set [3] deals with GSK3/β-catenin signaling. Description: Western blot of GSK3/β-catenin signaling in MCF-7 cells. It is filed as cell-based, human. The settings on record: FIG. 12A. Here is the method:
as §1

The test system of data set [4] is MCF-7-ADR cells. Put plainly: Annexin V and propidium iodide (PI) staining. It is filed as cell-based, human. The settings on record: FIG. 4E.
Data set [5] deals with MCF-7-ADR cells. Put plainly: Cell survival rate, WST-8 assay, MCF-7-ADR. It is filed as cell-based, human. Here is the method:
[…] Cell survival rate was analyzed by WST-8 assay (Sigma-Aldrich) and an optical density was measured at 450 nm using a microplate reader.

Data set [6] has as its target T1, PRKD1 autophosphorylation (Homo sapiens, UniProt Q15139).
T1 sequence (Q15139 1-912): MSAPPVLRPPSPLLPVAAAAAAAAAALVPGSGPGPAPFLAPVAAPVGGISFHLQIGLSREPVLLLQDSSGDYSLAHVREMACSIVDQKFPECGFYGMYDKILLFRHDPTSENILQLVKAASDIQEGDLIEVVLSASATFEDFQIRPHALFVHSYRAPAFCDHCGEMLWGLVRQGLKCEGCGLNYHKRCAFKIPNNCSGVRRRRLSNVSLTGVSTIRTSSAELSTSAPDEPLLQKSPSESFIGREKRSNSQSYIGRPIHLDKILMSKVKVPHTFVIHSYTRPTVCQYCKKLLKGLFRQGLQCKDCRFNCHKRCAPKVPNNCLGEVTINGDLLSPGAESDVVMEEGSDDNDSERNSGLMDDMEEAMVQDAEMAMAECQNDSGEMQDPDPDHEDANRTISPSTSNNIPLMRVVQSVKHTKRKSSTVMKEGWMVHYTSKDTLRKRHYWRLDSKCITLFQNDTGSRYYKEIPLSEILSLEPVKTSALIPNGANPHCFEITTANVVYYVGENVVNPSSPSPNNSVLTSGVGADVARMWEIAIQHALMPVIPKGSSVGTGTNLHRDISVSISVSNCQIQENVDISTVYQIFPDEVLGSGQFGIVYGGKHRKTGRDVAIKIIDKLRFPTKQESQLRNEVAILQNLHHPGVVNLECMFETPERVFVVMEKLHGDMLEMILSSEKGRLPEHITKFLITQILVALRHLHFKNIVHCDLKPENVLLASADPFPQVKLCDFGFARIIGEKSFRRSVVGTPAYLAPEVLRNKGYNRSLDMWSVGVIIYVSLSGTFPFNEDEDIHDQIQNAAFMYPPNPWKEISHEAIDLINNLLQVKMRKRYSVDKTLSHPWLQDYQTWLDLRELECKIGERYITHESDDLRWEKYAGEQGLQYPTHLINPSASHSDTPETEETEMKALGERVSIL
The settings on record: reference [16]; cited from earlier work.

For data set [7], the system named is MCF-7-ADR cells. Put plainly: CD44+/CD24− surface marker analysis using flow cytometry. Type of data set: cell-based, human. The settings on record: 1 μM, FIG. 3C. The procedure:
Cells were collected after transfection with RNAi of PRKD1 or CRT0066101 treatment and expression of CD44 +/CD24-surfaces was evaluated. The cells were washed with 2% FBS, stained with anti-CD44 (APC-conjugated; BD Biosciences) and anti-CD24 (BD Biosciences) in a PBS containing 2% FBS, and placed on ice in the dark for 30 minutes. The cells were washed again with a cold PBS buffer, loaded with >10,000 cells in a BD CantoII flow cytometer (BD Biosciences), and then analyzed by flow cytometry using FACSDiVa software (BD Biosciences).
(In general: In flow cytometry, cells or beads pass a laser one at a time.)

For data set [8], the system named is MCF-7-ADR cells. Put plainly: MCF-7-ADR xenograft in nude mice treated with CRT0066101. It is filed as in vivo, mouse. The procedure: A control or miR-32a overexpressed tumor and a carrier or CRT0066101 treated tumor were cut and paraffin-treated slides were used. The paraffin was removed from the slides, rehydrated 3 to 4 times in Histoclear, and then passed sequentially through ethanol at different concentrations (100%, 95%, 80%, and 70%). Antigen reconstitution was performed by immersing fragments in a 0.01M citric acid solution (pH 6.0) and boiling the fragments in a microwave for 15 minutes. In the case of TUNEL analysis, an in-situ apoptosis detection kit, a fluorescent material (Roche, Indianapolis, USA) labeled apoptotic cells, and a Ki-67 primary antibody (Vector Lab, USA) were applied to the fragments and incubated at 4° C. overnight. Thereafter, the slides were incubated with DAPI and secondary antibody for two hours. Finally, the slides were treated with a mounting solution (Dako) and a photograph was taken with a confocal microscope (Zeiss).
All studies, including the use of nude mice, were approved by the committee on animal protection and use of the Yonsei University Medical center (2015-0087) and performed under conditions according to facilities without specific pathogens and the guideline of the committee. Mice were anesthetized with 150 μl saline/zoletil/rompun (7:1:1) outside each femoral region and subcutaneously injected with 1.5×10^6 of MCF-7-ADR cells. Six mice were randomly grouped and started to be treated from 10-th day after tumor graft. […] The tumor size was measured every 3 to 4 days using a caliper from formation of touched tumor to termination and the tumor volume was calculated by Equation of length×width^2×0.5236. The mice were sacrificed in a 7.5% CO2 chamber and tumors were isolated and used for immunohistochemistry and other assays.

Where [9] appears, read: treated tumor vs control, FIG. 5G.

In the case of `CC[C@@H](N)CNc1ccnc(-c2cc(-c3cnn(C)c3)ccc2O)n1.Cl.Cl` [CRT0066101], the cell survival rate entry in the data set on MCF-7 cells was “did not decrease”. Moreover, the “phosphorylation of PKD/PKCμ and GSK3/β-catenin” value in the data set on GSK3/β-catenin signaling [1] is “inhibited”. Moreover, the “number of tumorspheres (>70 μm)” value in the data set with MCF-7-ADR cells [2] was “decreased dose-dependently”. Moreover, in the data set on GSK3/β-catenin signaling [3], the GSK3/β-catenin signaling result is “not affected”. The “level of apoptosis in doxorubicin-treated cells” value in the data set with MCF-7-ADR cells [4] (CRT0066101 added to doxorubicin-treated cells) was “increased”. Moreover, in the data set with MCF-7-ADR cells [5] (MCF-7-ADR cells, 0.1 to 5 μM, FIG. 4C), the cell survival rate result is listed as “decreased cell survival rate dose-dependently”. Further, the “cell survival rate, combination with doxorubicin” value in the data set with MCF-7-ADR cells [5] (MCF-7-ADR, CRT0066101 combined with doxorubicin, vs CRT0066101 alone, FIG. 4D) is listed as “significantly lowered”. In addition, the “growth of pancreatic cancer” value in [6] is given as “blocked growth”. The “number (Q1) of CD44+/CD24−” value with MCF-7-ADR cells [7] is reported as “also decreased”. The “side effects (sign of toxicity, weight loss)” value with MCF-7-ADR cells [8] (65 mg/kg daily for 4 weeks, all animals, FIG. 5E) is reported as “did not cause side effects”. Moreover, the tumor size result with MCF-7-ADR cells [8] (65 mg/kg daily for 4 weeks, oral, vs untreated control, FIG. 5D) is “reduced”. The tumor weight entry with MCF-7-ADR cells [8] (65 mg/kg daily for 4 weeks, vs control tumor, FIG. 5E) is reported as “reduced”. In addition, the “change in mouse's weight” value in the data set with MCF-7-ADR cells [8] (65 mg/kg orally daily for 4 weeks, FIG. 5E) is “not detected”. In the data set with MCF-7-ADR cells [8] (65 mg/kg orally daily for 4 weeks, vs control tumor, FIG. 5E), the volume of tumor result is reported as “reduced”. In the data set with MCF-7-ADR cells [8] (setting [9]), the “apoptosis in tumor, TUNEL analysis” value is reported as “apoptosis increased” and the “proliferation in tumor, Ki-67 staining” value is on record as “proliferation decreased”. Also, the “phosphorylated PKD/PKCμ through GSK3/β-catenin signaling in tumor” value in the data set with MCF-7-ADR cells [8] (western blot of tumor, FIG. 5F) is recorded as “down regulation”.
Consider `COc1cccc2c1C(=O)c1c(O)c3c(c(O)c1C2=O)C[C@@](O)(C(=O)CO)C[C@@H]3O[C@H]1C[C@H](N)[C@H](O)[C@H](C)O1` [doxorubicin], for which the initiation of apoptosis result in the data set with MCF-7-ADR cells [4] (treated cells vs control) is on record as “increased”. For the same compound, the cell survival rate result in the data set on MCF-7-ADR cells [5] (MCF-7-ADR cells exposed to doxorubicin at different doses, FIG. 4A) is reported as “reduced dose-dependently”.
